From patent US20070048371A1, “Pharmaceutical formulations/composition of guanfacine suitable for single dose form administration daily” (priority 2005, published 2007)
Like-named read-outs stand apart in the source and are kept apart here.

Experiments:
[1] = Example 2: open-label dose-escalation pharmacokinetic and safety study in children and adolescents with ADHD; assay type: in vivo, human; details: for AUC(0-t) / AUC(0-inf) / Cmax / Tmax / half-life / Vd/F: both sexes, human, plasma; for Vd/F: read-out: Vz/F
Description: Objective: The objective of this study was to assess the pharmacokinetics of controlled-release guanfacine after a single 2 mg dose or multiple doses of 2 mg and 4 mg from Table 2.
Methods: An open-label, dose-escalation study in male and female children (aged 6-12 years) and adolescents (aged 13-17 years) with ADHD. Subjects weighed 25 kg (55 lb) or more but were not considered overweight in the opinion of the investigator. Their electrocardiogram readings (ECGs) were within normal ranges, and their blood pressure measurements were within the 95th percentile for their age, height, and gender. […] Informed consent was given by the patient's parent or guardian.
[…] The dose was then titrated down to 3 mg on days 30 to 32, and 2 mg on days 33 to 35. Pharmacokinetic assessments were made after the single 2 mg dose and after 6 days of repeated 2 mg and 4 mg doses.

[2] = Example 3: Phase I single-dose crossover bioequivalence/dose proportionality study, 1 mg, 2 mg, 4 mg tablets, healthy adult volunteers; assay type: in vivo, human; details: human, in vivo; for AUC(0-t): AUC0-last
Description: Objectives: The study was designed to assess the bioequivalence of guanfacine 2 mg and 4 mg tablets from table 2 and to investigate the dose proportionality of 1 mg, 2 mg, and 4 mg doses.
Methods: This was a Phase I, randomized, open-label, single-dose, five period, four-treatment crossover design with a separate lead-in period.
Forty-nine (49) healthy adult volunteers completed the study. During period 1, all subjects received a single 1 mg dose administered after and overnight fast. Prior to period 2, subjects were randomly assigned to one of four sequence groups, with 13 subjects per sequence. During treatment periods 2-5, subjects received their assigned treatment of 2 mg or 4 mg. All subjects were to receive two single doses of 2 mg tablets and two single doses of 4 mg tablets during the course of the study. Doses during periods 2-5 were also administered after an overnight fast.

[3] = 28 children and adolescents with ADHD, 2-4 mg qd dose escalation
[4] = po, 2 mg, single 2 mg oral dose, Day 1, adolescents 13-17 yrs, ADHD patients, N = 14
[5] = po, 2 mg, single 2 mg oral dose, Day 1, children 6-12 yrs, ADHD patients, N = 14
[6] = single 2 mg oral dose, Day 1, adolescents 13-17 yrs, ADHD patients, N = 14
[7] = single 2 mg oral dose, Day 1, children 6-12 yrs, ADHD patients, N = 14

N=C(N)NC(=O)Cc1c(Cl)cccc1Cl [guanfacine]
abnormalities on ECGs, hematologic parameters, or serum chemistries [1, 3]: No clinically significant abnormalities
discontinuations due to adverse events [1, 3]: no discontinuations
severity of most AEs [1, 3]: mild to moderate
subjects with somnolence (AE possibly or probably due to treatment) [1, 3]: 93%
subjects judged to have severe somnolence ([1]; 28 children and adolescents with ADHD, 2-4 mg qd dose escalation, 6 subjects): 21%
CL/F ([1]; Day 14, 2 mg once daily oral, adolescents 13-17 yrs, ADHD patients, N = 14): 826 ± 486 mL/min
CL/F ([1]; Day 14, 2 mg once daily oral, children 6-12 yrs, ADHD patients, N = 14): 552 ± 215 mL/min
CL/F ([1]; Day 28, 4 mg once daily oral, adolescents 13-17 yrs, ADHD patients, N = 14): 607 ± 166 mL/min
CL/F ([1]; Day 28, 4 mg once daily oral, children 6-12 yrs, ADHD patients, N = 14): 522 ± 212 mL/min
AUC(0-t) ([1]; oral, 2 mg, dose of 2 mg of guanfacine, fasted patients ages 6-12 suffering from ADHD, read-out: AUC0-last): ~56.9 ng·h/mL
AUC(0-inf) ([1]; oral, 2 mg, dose of 2 mg of guanfacine, fasted patients ages 6-12 suffering from ADHD, read-out: AUC∞): ~65.2 ng·h/mL
Cmax ([1]; oral, 2 mg, dose of 2 mg of guanfacine, fasted patients ages 6-12 suffering from ADHD, read-out: mean Cmax): ~2.55 ng/mL
Tmax ([1]; oral, 2 mg, dose of 2 mg of guanfacine, fasted patients ages 6-12 suffering from ADHD, read-out: median Tmax): ~5 h
AUC(0-t) ([1]; oral, 2 mg, dose of 2 mg of guanfacine, fasted patients ages 13-17 suffering from ADHD, read-out: AUC0-last): ~42.7 ng·h/mL
AUC(0-inf) ([1]; oral, 2 mg, dose of 2 mg of guanfacine, fasted patients ages 13-17 suffering from ADHD, read-out: AUC∞): ~47.2 ng·h/mL
Cmax ([1]; oral, 2 mg, dose of 2 mg of guanfacine, fasted patients ages 13-17 suffering from ADHD, read-out: mean Cmax): ~1.69 ng/mL
Tmax ([1]; oral, 2 mg, dose of 2 mg of guanfacine, fasted patients ages 13-17 suffering from ADHD, read-out: median Tmax): ~5 h
half-life ([1]; oral, 2 mg, measured for the 2 mg formulation, fasted patients ages 6-12 suffering from ADHD): 864 ± 144 min
half-life ([1]; oral, 2 mg, measured for the 2 mg formulation, fasted patients ages 13-17 suffering from ADHD): 1070 ± 348 min
AUC(0-t) ([1]; po, 2 mg, Day 14, 2 mg once daily oral, adolescents 13-17 yrs, ADHD patients, N = 14, read-out: AUC0-24): 48.2 ± 16.1 ng·h/mL
Cmax ([1]; po, 2 mg, Day 14, 2 mg once daily oral, adolescents 13-17 yrs, ADHD patients, N = 14, read-out: Cmax): 2.86 ± 0.77 ng/mL
Tmax ([1]; po, 2 mg, Day 14, 2 mg once daily oral, adolescents 13-17 yrs, ADHD patients, N = 14, read-out: Tmax): 4.53 h
AUC(0-t) ([1]; po, 2 mg, Day 14, 2 mg once daily oral, children 6-12 yrs, ADHD patients, N = 14, read-out: AUC0-24): 70 ± 28.3 ng·h/mL
Cmax ([1]; po, 2 mg, Day 14, 2 mg once daily oral, children 6-12 yrs, ADHD patients, N = 14, read-out: Cmax): 4.39 ± 1.66 ng/mL
Tmax ([1]; po, 2 mg, Day 14, 2 mg once daily oral, children 6-12 yrs, ADHD patients, N = 14, read-out: Tmax): 4.98 h
half-life [1, 4]: 1070 ± 346 min
AUC(0-t) ([1]; po, 2 mg, single 2 mg oral dose, Day 1, adolescents 13-17 yrs, ADHD patients, N = 14, read-out: AUC0-t): 42.7 ± 12.9 ng·h/mL
AUC(0-inf) ([1]; po, 2 mg, single 2 mg oral dose, Day 1, adolescents 13-17 yrs, ADHD patients, N = 14, read-out: AUC0-∞): 47.3 ± 13.7 ng·h/mL
Cmax ([1]; po, 2 mg, single 2 mg oral dose, Day 1, adolescents 13-17 yrs, ADHD patients, N = 14, read-out: Cmax): 1.69 ± 0.43 ng/mL
Tmax ([1]; po, 2 mg, single 2 mg oral dose, Day 1, adolescents 13-17 yrs, ADHD patients, N = 14, read-out: Tmax): 4.96 h
Vd/F [1, 4]: 1240 L
half-life [1, 5]: 864 ± 143 min
AUC(0-t) ([1]; po, 2 mg, single 2 mg oral dose, Day 1, children 6-12 yrs, ADHD patients, N = 14, read-out: AUC0-t): 56.9 ± 22 ng·h/mL
AUC(0-inf) ([1]; po, 2 mg, single 2 mg oral dose, Day 1, children 6-12 yrs, ADHD patients, N = 14, read-out: AUC0-∞): 65.2 ± 23.9 ng·h/mL
Cmax ([1]; po, 2 mg, single 2 mg oral dose, Day 1, children 6-12 yrs, ADHD patients, N = 14, read-out: Cmax): 2.55 ± 1.03 ng/mL
Tmax ([1]; po, 2 mg, single 2 mg oral dose, Day 1, children 6-12 yrs, ADHD patients, N = 14, read-out: Tmax): 4.98 h
Vd/F [1, 5]: 766 ± 380 L
AUC(0-t) ([1]; po, 4 mg, Day 28, 4 mg once daily oral, adolescents 13-17 yrs, ADHD patients, N = 14, read-out: AUC0-24): 117 ± 28.4 ng·h/mL
Cmax ([1]; po, 4 mg, Day 28, 4 mg once daily oral, adolescents 13-17 yrs, ADHD patients, N = 14, read-out: Cmax): 7.01 ± 1.53 ng/mL
Tmax ([1]; po, 4 mg, Day 28, 4 mg once daily oral, adolescents 13-17 yrs, ADHD patients, N = 14, read-out: Tmax): 4.97 h
AUC(0-t) ([1]; po, 4 mg, Day 28, 4 mg once daily oral, children 6-12 yrs, ADHD patients, N = 14, read-out: AUC0-24): 162 ± 116 ng·h/mL
Cmax ([1]; po, 4 mg, Day 28, 4 mg once daily oral, children 6-12 yrs, ADHD patients, N = 14, read-out: Cmax): 10.1 ± 7.09 ng/mL
Tmax ([1]; po, 4 mg, Day 28, 4 mg once daily oral, children 6-12 yrs, ADHD patients, N = 14, read-out: Tmax): 5.02 h
linearity of pharmacokinetics ([1]; single 2 mg doses and multiple 2 mg and 4 mg doses, children (6-12 years) and adolescent (13-17 years) ADHD patients): linear
CL/F [1, 6]: 815 ± 214 mL/min
λz [1, 6]: 0.0428 ± 0.0153 h⁻¹
CL/F [1, 7]: 612 ± 252 mL/min
λz [1, 7]: 0.0496 ± 0.0093 h⁻¹
AUC(0-t) ([2]; 1 mg): ~29.3 ng·h/mL
AUC(0-inf) ([2]; 1 mg, AUC∞): ~32.4 ng·h/mL
Cmax ([2]; 1 mg, mean Cmax): ~0.98 ng/mL
Tmax ([2]; 1 mg, median Tmax): ~6 h
half-life ([2]; 1 mg, t1/2): 1050 ± 228 min
AUC(0-t) ([2]; 4 mg): ~120 ng·h/mL
